# Test results published in patent US10648038B2, “Biomarkers to identify patients that will respond to treatment and treating such patients” (Acetylon Pharmaceuticals, Inc., priority 2012, dated 2020).
# System: 65 cancer cell lines
# Assay: Cell viability screening of a panel of 65 cancer cell lines, association with cancer type and gene mutation
# Assay type: cell-based, human
# Procedure: 65 cancer cell lines (including 12 of breast cancer, 11 of hematologic cancer, 9 of colorectal cancer, 6 of lung cancer, 6 of skin cancer, 4 brain cancer, 3 of renal cancer, 3 of liver cancer, 3 of prostate cancer, 3 of pancreatic cancer, 3 of ovarian cancer, and 2 of stomach cancer) were selected for analysis. Each of the cell lines was cultured and treated with the HDAC6 inhibitor, Compound A, with or without the proteasome inhibitor, bortezomib, before their cell viabilities were measured at the end of treatments. The sensitivities of the cell lines were described using the concentration of Compound A that provides 50% inhibition of cell viabilities (IC50). In all analyses, the logarithm of drug sensitivity values (i.e., Log [IC50]) was used, which is more normally distributed than the raw IC50 values. This is because most standard statistical tests (e.g., t-test and correlation analysis) assume the normal distribution of data points.
# For the association tests of gene mutations, 50 common oncogene/tumor suppressor genes were selected to analyze the results. Mutation profiles of the cell lines were downloaded from the Sanger COSMIC DB on the Internet: www dot sanger dot ac dot uk/cosmic. For each gene locus, the “Fisher's Exact Test” was used to calculate statistical significance (p<0.05) of association between the genotype and the cell sensitivities to the treatments.
# [1] = most cell lines of the panel, agent alone
SMILES,"sensitivity of cell lines to treatment (cell viability) (a number of lymphoma and leukemia cell lines, single agent)","sensitivity of cell lines to treatment (cell viability) (breast cancer cell lines with Her2 protein overexpression (ERBB2 amplification), Fisher's Exact Test p<0.05)","sensitivity of cell lines to treatment (cell viability) (breast cancer cell lines, basal-type or triple negative, Fisher's Exact Test p<0.05)","sensitivity of cell lines to treatment (cell viability) (cell lines for hematologic malignant cancer, Compound A alone)","sensitivity of cell lines to treatment (cell viability) (lymphoma cells, compared with other cell groups of the 65 lines)",sensitivity of cell lines to treatment (cell viability) [1]
"O=C(CCCCCCNC(=O)c1cnc(N(c2ccccc2)c2ccccc2)nc1)NO [Compound A, 2-(diphenylamino)-N-(7-(hydroxyamino)-7-oxoheptyl)pyrimidine-5-carboxamide]",substantial sensitivity,sensitive,resistant,most sensitive,most sensitive,resistant
"CC(C)C[C@H](NC(=O)[C@H](Cc1ccccc1)NC(=O)c1cnccn1)B(O)O [bortezomib, reference compound]",–,–,–,–,–,resistant
